PubChem BioAssay AID328 (DTP/NCI, 2004)
“And” between values parts separate entries of the source, which are not always exact repeats. Identical values can stand only once. Toxic doses and inconclusive results are not listed. The calls were made as follows: active = survival T/C of 150% or more; inactive = T/C below 125% in these data.

Test system: BDF1 mice, P388 leukemia ip, median survival T/C
Test: NCI In Vivo Anticancer Drug Screen. Data for tumor model P388 Leukemia (intraperitoneal) in B6D2F1 (BDF1) mice
Conditions: endpoint: median survival time, higher = longer survival
In short: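 Antitumour effect was judged in vivo: survival in drug-treated mice, normalised to that of vehicle-dosed controls, gives the reported T/C.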

[1] = dose: 100.0 mg/kg/injection, schedule: Q04DX003 (ip), vehicle: Klucel (hydroxypropylcellulose) (HPC)
[2] = dose: 200.0 mg/kg/injection, schedule: Q04DX003 (ip), vehicle: saline with Tween-80
[3] = dose: 100.0 mg/kg/injection, schedule: Q01DX009 (ip), vehicle: saline with Tween-80

Measured: T/C

Cc1c(-c2ccccc2)cc(O)cc1-c1ccccc1
inactive: dose: 12.5 mg/kg/injection, schedule: Q04DX003 (ip), vehicle: saline 101 % of control | dose: 25.0 mg/kg/injection, schedule: Q04DX003 (ip), vehicle: saline 97 % of control and 114 % of control | dose: 50.0 mg/kg/injection, schedule: Q04DX003 (ip), vehicle: saline 102 % of control (2×) and 112 % of control | dose: 100.0 mg/kg/injection, schedule: Q04DX003 (ip), vehicle: saline 88 % of control and 109 % of control | dose: 150.0 mg/kg/injection, schedule: Q04DX003 (ip), vehicle: saline 93 % of control | dose: 200.0 mg/kg/injection, schedule: Q04DX003 (ip), vehicle: saline 93 % of control and 101 % of control and 102 % of control

CC1=CC2=C(C=O)C(=O)[C@](C)(O)[C@@H](O)C2=CO1
inactive: dose: 44.0 mg/kg/injection, schedule: Q04DX003 (ip), vehicle: Klucel (hydroxypropylcellulose) (HPC) 101 % of control | dose: 44.0 mg/kg/injection, schedule: Q04DX003 (ip), vehicle: saline with Tween-80 108 % of control and 114 % of control | dose: 66.0 mg/kg/injection, schedule: Q04DX003 (ip), vehicle: Klucel (hydroxypropylcellulose) (HPC) 115 % of control | dose: 66.0 mg/kg/injection, schedule: Q04DX003 (ip), vehicle: saline with Tween-80 116 % of control | [1] 108 % of control | dose: 150.0 mg/kg/injection, schedule: Q04DX003 (ip), vehicle: saline with Tween-80 108 % of control | [2] 95 % of control

CCN(CC)CCCNc1c(OC)cc(C)c2sc3ccccc3c(=O)c12
inactive: dose: 12.5 mg/kg/injection, schedule: Q01DX009 (ip), vehicle: saline 93 % of control | dose: 25.0 mg/kg/injection, schedule: Q01DX009 (ip), vehicle: saline 108 % of control | dose: 50.0 mg/kg/injection, schedule: Q01DX009 (ip), vehicle: saline 112 % of control

CN(C)CC(C(=O)c1ccc(Br)cc1)C(Br)c1ccccc1 (stereo not drawn)
inactive: dose: 0.78 mg/kg/injection, schedule: Q01DX009 (ip), vehicle: Klucel (hydroxypropylcellulose) (HPC) 100 % of control | dose: 1.56 mg/kg/injection, schedule: Q01DX009 (ip), vehicle: Klucel (hydroxypropylcellulose) (HPC) 95 % of control | dose: 3.12 mg/kg/injection, schedule: Q01DX009 (ip), vehicle: Klucel (hydroxypropylcellulose) (HPC) 108 % of control | dose: 4.6 mg/kg/injection, schedule: Q01DX009 (ip), vehicle: saline 113 % of control | dose: 7.0 mg/kg/injection, schedule: Q01DX009 (ip), vehicle: saline 118 % of control | dose: 10.0 mg/kg/injection, schedule: Q01DX009 (ip), vehicle: saline 109 % of control | dose: 14.0 mg/kg/injection, schedule: Q01DX009 (ip), vehicle: saline 108 % of control | dose: 16.25 mg/kg/injection, schedule: Q04DX003 (ip), vehicle: saline 100 % of control | dose: 22.0 mg/kg/injection, schedule: Q01DX009 (ip), vehicle: saline 108 % of control | dose: 32.5 mg/kg/injection, schedule: Q04DX003 (ip), vehicle: saline 105 % of control | dose: 65.0 mg/kg/injection, schedule: Q04DX003 (ip), vehicle: saline 110 % of control

OCc1ccccc1
inactive: [3] 95 % of control | dose: 200.0 mg/kg/injection, schedule: Q01DX009 (ip), vehicle: saline with Tween-80 104 % of control | dose: 400.0 mg/kg/injection, schedule: Q01DX009 (ip), vehicle: saline with Tween-80 108 % of control

CCCCNc1nc(N)nc(Nc2ccc(Br)cc2)c1N=O
inactive: dose: 25.0 mg/kg/injection, schedule: Q01DX009 (ip), vehicle: saline with Tween-80 90 % of control | dose: 50.0 mg/kg/injection, schedule: Q01DX009 (ip), vehicle: saline with Tween-80 90 % of control | dose: 100.0 mg/kg/injection, schedule: Q01DX001 (ip), vehicle: Klucel (hydroxypropylcellulose) (HPC) 100 % of control | [3] 90 % of control and 91 % of control | [1] 120 % of control | dose: 100.0 mg/kg/injection, schedule: Q04DX003 (ip), vehicle: saline with Tween-80 86 % of control | dose: 132.0 mg/kg/injection, schedule: Q04DX003 (ip), vehicle: Klucel (hydroxypropylcellulose) (HPC) 100 % of control and 109 % of control | dose: 200.0 mg/kg/injection, schedule: Q01DX001 (ip), vehicle: Klucel (hydroxypropylcellulose) (HPC) 91 % of control | dose: 200.0 mg/kg/injection, schedule: Q04DX003 (ip), vehicle: Klucel (hydroxypropylcellulose) (HPC) 104 % of control | [2] 104 % of control | dose: 300.0 mg/kg/injection, schedule: Q04DX003 (ip), vehicle: Klucel (hydroxypropylcellulose) (HPC) 90 % of control and 113 % of control | dose: 400.0 mg/kg/injection, schedule: Q01DX001 (ip), vehicle: Klucel (hydroxypropylcellulose) (HPC) 91 % of control | dose: 400.0 mg/kg/injection, schedule: Q04DX003 (ip), vehicle: saline with Tween-80 100 % of control
